How the values were obtained:
[1] = tested on: IGROV-1; assay: Growth inhibition of human IGROV1 cells after 48 hrs by sulforhodamine B assay; assay type: functional; conditions: IGROV-1, 48 h
[2] = tested on: MDA-MB-468; assay: Growth inhibition of human MDA-MB-468 cells after 48 hrs by sulforhodamine B assay; assay type: functional, cell-based; conditions: MDA-MB-468, 48 h
[3] = tested on: T47D; assay: Growth inhibition of human T47D cells assessed as cell growth at 10 uM after 48 hrs by sulforhodamine B assay; assay type: functional; conditions: read-out: Activity
[4] = tested on: HOP-62; assay: Growth inhibition of human HOP62 cells after 48 hrs by sulforhodamine B assay; assay type: functional; conditions: HOP-62, 48 h
[5] = tested on: COLO 205; assay: Growth inhibition of human COLO205 cells after 48 hrs by sulforhodamine B assay; assay type: functional; conditions: COLO 205, 48 h
[6] = tested on: DU-145; assay: Growth inhibition of human DU145 cells assessed as cell growth at 10 uM after 48 hrs by sulforhodamine B assay; assay type: functional; conditions: DU-145, 48 h, read-out: Activity
[7] = tested on: ACHN; assay: Growth inhibition of human ACHN cells assessed as cell growth at 10 uM after 48 hrs by sulforhodamine B assay; assay type: functional; conditions: read-out: Activity
[8] = tested on: UACC-62; assay: Growth inhibition of human UACC62 cells assessed as cell growth at 10 uM after 48 hrs by sulforhodamine B assay; assay type: functional; conditions: UACC-62, 48 h, read-out: Activity
[9] = tested on: K562; assay: Growth inhibition of human K562 cells after 48 hrs by sulforhodamine B assay; assay type: functional; conditions: K562, 48 h
[10] = tested on: SK-MEL-28; assay: Growth inhibition of human SK-MEL-28 cells after 48 hrs by sulforhodamine B assay; assay type: functional; conditions: SK-MEL-28, 48 h
[11] = tested on: UO-31; assay: Growth inhibition of human UO31 cells after 48 hrs by sulforhodamine B assay; assay type: functional; conditions: UO-31, 48 h
[12] = tested on: SK-OV-3; assay: Growth inhibition of human SKOV3 cells assessed as cell growth at 10 uM after 48 hrs by sulforhodamine B assay; assay type: functional; conditions: SK-OV-3, 48 h, read-out: Activity
[13] = tested on: MDA-MB-435; assay: Growth inhibition of human MDA-MB-435 cells assessed as cell growth at 10 uM after 48 hrs by sulforhodamine B assay; assay type: functional; conditions: MDA-MB-435, 48 h, read-out: Activity
[14] = tested on: MDA-MB-435; assay: Growth inhibition of human MDA-MB-435 cells after 48 hrs by sulforhodamine B assay; assay type: functional, cell-based; conditions: MDA-MB-435, 48 h
[15] = tested on: T47D; assay: Growth inhibition of human T47D cells after 48 hrs by sulforhodamine B assay; assay type: functional
[16] = tested on: SF-295; assay: Growth inhibition of human SF295 cells after 48 hrs by sulforhodamine B assay; assay type: functional, cell-based; conditions: SF-295, 48 h
[17] = tested on: UO-31; assay: Growth inhibition of human UO31 cells assessed as cell growth at 10 uM after 48 hrs by sulforhodamine B assay; assay type: functional; conditions: UO-31, 48 h, read-out: Activity
[18] = tested on: OVCAR-8; assay: Growth inhibition of human OVCAR8 cells assessed as cell growth at 10 uM after 48 hrs by sulforhodamine B assay; assay type: functional; conditions: OVCAR-8, 48 h, read-out: Activity
[19] = tested on: A498; assay: Growth inhibition of human A498 cells assessed as cell growth at 10 uM after 48 hrs by sulforhodamine B assay; assay type: functional; conditions: A498, 48 h, read-out: Activity
[20] = tested on: SNB-19; assay: Growth inhibition of human SNB19 cells assessed as cell growth at 10 uM after 48 hrs by sulforhodamine B assay; assay type: functional; conditions: SNB-19, 48 h, read-out: Activity
[21] = Growth inhibition of human HCC2998 cells after 48 hrs by sulforhodamine B assay; assay type: functional; conditions: HCC 2998, 48 h
[22] = tested on: OVCAR-4; assay: Growth inhibition of human OVCAR4 cells assessed as cell growth at 10 uM after 48 hrs by sulforhodamine B assay; assay type: functional; conditions: OVCAR-4, 48 h, read-out: Activity
[23] = tested on: MDA-MB-231; assay: Growth inhibition of human MDA-MB-231 cells after 48 hrs by sulforhodamine B assay; assay type: functional; conditions: MDA-MB-231, 48 h
[24] = tested on: 786-0; assay: Growth inhibition of human 786-0 cells assessed as cell growth at 10 uM after 48 hrs by sulforhodamine B assay; assay type: functional; conditions: 786-0, 48 h, read-out: Activity
[25] = tested on: M14; assay: Growth inhibition of human M14 cells assessed as cell growth at 10 uM after 48 hrs by sulforhodamine B assay; assay type: functional; conditions: M14, 48 h, read-out: Activity
[26] = Growth inhibition of human Hs 578T cells assessed as cell growth at 10 uM after 48 hrs by sulforhodamine B assay; assay type: functional; conditions: read-out: Activity
[27] = tested on: LOX IMVI; assay: Growth inhibition of human LOXIMVI cells after 48 hrs by sulforhodamine B assay; assay type: functional
[28] = tested on: NCI-H322M; assay: Growth inhibition of human NCI-H322M cells assessed as cell growth at 10 uM after 48 hrs by sulforhodamine B assay; assay type: functional; conditions: read-out: Activity
[29] = tested on: HCT-15; assay: Growth inhibition of human HCT15 cells after 48 hrs by sulforhodamine B assay; assay type: functional; conditions: HCT-15, 48 h
[30] = tested on: K562; assay: Growth inhibition of human K562 cells assessed as cell growth at 10 uM after 48 hrs by sulforhodamine B assay; assay type: functional; conditions: K562, 48 h, read-out: Activity
[31] = tested on: HL-60(TB); assay: Growth inhibition of human HL-60(TB) cells after 48 hrs by sulforhodamine B assay; assay type: functional; conditions: HL-60, 48 h
[32] = tested on: MDA-MB-231; assay: Growth inhibition of human MDA-MB-231 cells assessed as cell growth at 10 uM after 48 hrs by sulforhodamine B assay; assay type: functional; conditions: MDA-MB-231, 48 h, read-out: Activity
[33] = tested on: 786-0; assay: Growth inhibition of human 786-0 cells after 48 hrs by sulforhodamine B assay; assay type: functional; conditions: 786-0, 48 h
[34] = tested on: RPMI-8226; assay: Growth inhibition of human RPMI8226 cells after 48 hrs by sulforhodamine B assay; assay type: functional, cell-based; conditions: RPMI-8226, 48 h
[35] = read-out: LC50 (the source's name)

With `COc1cc(-c2nn(-c3cccc(NC(=O)Nc4cc(C(F)(F)F)cc(C(F)(F)F)c4)c3)cc2-c2ccncc2)ccc1Cl` the GI50 [1] was 826 nM, the LC50 (concentration killing 50% of cells) [1] was 23700 nM and the TGI [1] was 2190 nM. For the same molecule, the GI50 [2] was 307 nM, the IC50 [2] was 310 nM and the TGI [2] was 1540 nM. It also gave a CC50 [2, 35] of 24300 nM, a growth at 10 µM [3] of 4.45% and a GI50 [4] of 855 nM. For the same molecule, the TGI [4] was 1590 nM, the CC50 [4, 35] was 2950 nM and the GI50 [5] was 847 nM. The LC50 (concentration killing 50% of cells) [5] was 2910 nM, the TGI [5] was 1570 nM and the growth at 10 µM [6] was 3.89%. It also gave a growth at 10 µM [7] of 10.6%, a growth at 10 µM [8] of -55.9% and a GI50 [9] of 363 nM. The TGI [9] was 3250 nM, the CC50 [9, 35] was greater than 50000 nM and the GI50 [10] was 851 nM. It also gave an LC50 [10] of 3380 nM, a TGI [10] of 1700 nM and a GI50 [11] of 600 nM. The TGI [11] was 1280 nM, the CC50 [11, 35] was 2730 nM and the growth at 10 µM [12] was -9.79%. It also gave a growth at 10 µM [13] of -58.3%, a GI50 [14] of 886 nM and an IC50 [14] of 890 nM. The TGI [14] was 1990 nM, the CC50 [14, 35] was 4460 nM and the GI50 [15] was 1550 nM. The TGI [15] was greater than 50000 nM, the CC50 [15, 35] was greater than 50000 nM and the GI50 [16] was 399 nM. For the same molecule, the IC50 [16] was 400 nM, the TGI [16] was 1230 nM and the CC50 [16, 35] was 3310 nM. The growth at 10 µM [17] was -29.2%, the growth at 10 µM [18] was -12.7% and the growth at 10 µM [19] was -14.6%. It also gave a growth at 10 µM [20] of 6.55%, a GI50 [21] of 931 nM and a TGI [21] of 1870 nM. It also gave a CC50 [21, 35] of 3760 nM, a growth at 10 µM [22] of 17.2% and a GI50 [23] of 664 nM. The LC50 [23] was 3000 nM, the TGI [23] was 1410 nM and the growth at 10 µM [24] was -71.1%. It also gave a growth at 10 µM [25] of -42.1%, a growth at 10 µM [26] of -25.8% and a GI50 [27] of 783 nM. It also gave an LC50 [27] of 2940 nM, a TGI [27] of 1520 nM and a growth at 10 µM [28] of 26.1%. The GI50 [29] was 617 nM, the LC50 [29] was 4330 nM and the TGI [29] was 1640 nM. It also gave a growth at 10 µM [30] of -10.7%, a GI50 [31] of 1180 nM and a TGI [31] greater than 50000 nM. For the same molecule, the CC50 [31, 35] was greater than 50000 nM, the growth at 10 µM [32] was -92% and the GI50 [33] was 950 nM. It also gave a TGI [33] of 2020 nM, a CC50 [33, 35] of 4310 nM and a GI50 [34] of 307 nM. The IC50 [34] was 310 nM, the TGI [34] was greater than 50000 nM and the CC50 [34, 35] was greater than 50000 nM.
